From patent US20020026053A1, “Novel 3-(substituted) -2- indolinones compounds and use thereof as inhibitors of protein kinase activity” (priority 1997, published 2002)

System: PDGF-R
Assay: PDGF-R Assay (cellular ELISA, U1242 cells)
Format: cell-based
Set-up: concentration or dose not given beside the values
Method: The cellular/catalytic assays described herein are performed in an ELISA format. The general procedure is as follows: a compound is introduced to cells expressing the test kinase, either naturally or recombinantly, for a selected period of time after which, if the test kinase is a receptor, a ligand known to activate the receptor is added. The cells are lysed and the lysate is transferred to the wells of an ELISA plate previously coated with a specific antibody recognizing the substrate of the enzymatic phosphorylation reaction. Non-substrate components of the cell lysate are washed away and the amount of phosphorylation on the substrate is detected with an antibody specifically recognizing phosphotyrosine compared with control cells that were not contacted with a test compound.
All cell culture media, glutamine, and fetal bovine serum can be purchased from Gibco Life Technologies (Grand Island, N.Y.) unless otherwise specified. All cells are grown in a humid atmosphere of 90-95% air and 5-10% CO2 at 37° C. All cell lines are routinely subcultured twice a week and are negative for mycoplasma as determined by the Mycotect method (Gibco).
For ELISA assays, cells (U1242, obtained from Joseph Schlessinger, NYU) are grown to 80-90% confluency in growth medium (MEM with 10% FBS, NEAA, 1 mM NaPyr and 2 mM GLN) and seeded in 96-well tissue culture plates in 0.5% serum at 25,000 to 30,000 cells per well. After overnight incubation in 0.5% serum-containing medium, cells are changed to serum-free medium and treated with test compound for 2 hr in a 5% CO2, 37° C. incubator. Cells are then stimulated with ligand for 5-10 minute followed by lysis with HNTG (20 mM Hepes, 150 mM NaCl, 10% glycerol, 5 mM EDTA, 5 mM Na3VO4, 0.2% Triton X-100, and 2 mM NaPyr). Cell lysates (0.5 mg/well in PBS) are transferred to ELISA plates previously coated with receptor-specific antibody and which had been blocked with 5% milk in TBST (50 mM Tris-HCl pH 7.2, 150 mM NaCl and 0.1% Triton X-100) at room temperature for 30 min. Lysates are incubated with shaking for 1 hour at room temperature. The plates are washed with TBST four times and then incubated with polyclonal anti-phosphotyrosine antibody at room temperature for 30 minutes. Excess anti-phosphotyrosine antibody is removed by rinsing the plate with TBST four times. Goat anti-rabbit IgG antibody is added to the ELISA plate for 30 min at room temperature followed by rinsing with TBST four more times. ABTS (100 mM citric acid, 250 mM Na2HPO4 and 0.5 mg/mL 2,2′-azino-bis (3-ethylbenzthiazoline-6-sulfonic acid)) plus H2O2 ([…] 30% H2O2 to 10 ml ABTS) is added to the ELISA plates to start color development. Absorbance at 410 nm with a reference wavelength of 630 nm is recorded about 15 to 30 min after ABTS addition.

**Q.** `Cc1cn(C)cc1C=C1C(=O)Nc2c(Br)cc(Br)c(C)c21` [10726/H06] was tested. Which “PDGF Kinase % Inhibition (P.119)” value did it give?
**A.** Its value is −20.9%.

**Q.** With `Cc1c(Br)cc(Br)c2c1C(=CC(c1cccs1)C(F)(F)F)C(=O)N2` (centres unmarked) [10732/H02] as the compound, how does the “PDGF Kinase % Inhibition (P.119)” value read?
**A.** The value was 6.8%.

**Q.** Which “PDGF Kinase % Inhibition (P.119)” value does the source give for `Cc1c(Br)cc(Br)c2c1C(=Cc1ccc(-c3ccccc3Cl)o1)C(=O)N2` [10730/H07] here?
**A.** Its value is 0.6%.

**Q.** Which “PDGF Kinase % Inhibition (P.119)” value does the source give for `Cc1cc2occ(C=C3C(=O)Nc4c(Br)cc(Br)c(C)c43)c(=O)c2cc1C` [10731/H03] here?
**A.** The value was 1.8%.

**Q.** Which “PDGF Kinase % Inhibition (P.119)” value does the source give for `COc1c(C(C)C)cc(C=C2C(=O)Nc3c(Br)cc(Br)c(C)c32)cc1C(C)C` [10732/H03] here?
**A.** Its value is −1.8%.

**Q.** How did the “PDGF Kinase % Inhibition (P.119)” value turn out when `Cc1c(Br)cc(Br)c2c1C(=Cc1coc3ccc(C(C)C)cc3c1=O)C(=O)N2` [10731/H05] was run?
**A.** Its value is −1.6%.

**Q.** How did the “PDGF Kinase % Inhibition (P.119)” value turn out when `Cc1c(Br)cc(Br)c2c1C(=Cc1coc3ccccc3c1=O)C(=O)N2` [10727/H07] was run?
**A.** Its value is −37.2%.

**Q.** For `Cc1c(Br)cc(Br)c2c1C(=Cc1cccc(C(F)(F)F)c1F)C(=O)N2` [10728/H07], which “PDGF Kinase % Inhibition (P.119)” value is on record?
**A.** Its value is −1.7%.

**Q.** For `COc1ccc2ccccc2c1C=C1C(=O)Nc2c(Br)cc(Br)c(C)c21` [10729/H02], which “PDGF Kinase % Inhibition (P.119)” value is on record?
**A.** Its value is 2.3%.

**Q.** With `CSc1ccc(C=C2C(=O)Nc3c(Br)cc(Br)c(C)c32)cc1` [10729/H04] as the compound, how does the “PDGF Kinase % Inhibition (P.119)” value read?
**A.** Its value is −5.6%.

**Q.** Which “PDGF Kinase % Inhibition (P.119)” value does the source give for `CC(=O)n1cc(C=C2C(=O)Nc3c(Br)cc(Br)c(C)c32)c2ccccc21` [10730/H05] here?
**A.** The value was 22.1%.

**Q.** For `Cc1c(Br)cc(Br)c2c1C(=Cc1ccncc1)C(=O)N2` [10729/H09], which “PDGF Kinase % Inhibition (P.119)” value is on record?
**A.** The value was 0.1%.

**Q.** Which “PDGF Kinase % Inhibition (P.119)” value does the source give for `Cc1c(Br)cc(Br)c2c1C(=Cc1cc([N+](=O)[O-])ccc1O)C(=O)N2` [10733/H10] here?
**A.** The value was 10.7%.

**Q.** For `Cc1ccsc1C=C1C(=O)Nc2c(Br)cc(Br)c(C)c21` [10729/H05], which “PDGF Kinase % Inhibition (P.119)” value is on record?
**A.** Its value is −27.6%.

**Q.** For `Cc1c(Br)cc(Br)c2c1C(=Cc1cc(C(C)C)c(Oc3ccccc3)c(C(C)C)c1)C(=O)N2` [10732/H04], which “PDGF Kinase % Inhibition (P.119)” value is on record?
**A.** Its value is 14.4%.

**Q.** `Cc1c(Br)cc(Br)c2c1C(=Cc1cc(Cl)c(OCc3ccccc3)c(C(C)(C)C)c1)C(=O)N2` [10732/H10] was tested. Which “PDGF Kinase % Inhibition (P.119)” value did it give?
**A.** The value was −21.0%.

**Q.** For `Cc1c(Br)cc(Br)c2c1C(=Cc1ccc(C#N)cc1)C(=O)N2` [10727/H09], which “PDGF Kinase % Inhibition (P.119)” value is on record?
**A.** Its value is −11.7%.
